Laboratory results published in PubChem BioAssay AID2060609 (Molecular Pharmacology Branch, DTP, NCI, 2025).
“And” between values parts separate entries of the source, which are not always exact repeats. Equal values may be shown once.

Test system: 855422-203-R-J1-PDC complex spheroids, viability
Test: Anticancer human tumor 855422-203-R-J1-PDC patient-derived bladder carcinoma cell line growth inhibition [CLK]
Conditions: for viability, T/C: stronger effect = lower value
Method in brief: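 Multi-cell-type spheroids combined patient-derived tumor cells with HUVEC endothelial cells and human mesenchymal stem cells. Paired agents were dosed in half-log steps down from about clinical Cmax, or from 10 microM where Cmax was unknown.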

[1] = curve of first compound, second compound 0.0316 µM
[2] = curve of first compound, second compound 0.1 µM
[3] = curve of first compound, second compound 0.316 µM
[4] = curve of first compound, second compound 1 µM
[5] = curve of first compound, second compound 3.16 µM
[6] = curve of first compound, second compound 10 µM
[7] = second compound 0.0316 µM, first compound 0.0316 µM
[8] = second compound 0.0316 µM, first compound 0.1 µM
[9] = second compound 0.0316 µM, first compound 0.316 µM
[10] = second compound 0.0316 µM, first compound 1 µM
[11] = second compound 0.0316 µM, first compound 3.16 µM
[12] = second compound 0.0316 µM, first compound 10 µM
[13] = second compound 0.1 µM, first compound 0.0316 µM
[14] = second compound 0.1 µM, first compound 0.1 µM
[15] = second compound 0.1 µM, first compound 0.316 µM
[16] = second compound 0.1 µM, first compound 1 µM
[17] = second compound 0.1 µM, first compound 3.16 µM
[18] = second compound 0.1 µM, first compound 10 µM
[19] = second compound 0.316 µM, first compound 0.0316 µM
[20] = second compound 0.316 µM, first compound 0.1 µM
[21] = second compound 0.316 µM, first compound 0.316 µM
[22] = second compound 0.316 µM, first compound 1 µM
[23] = second compound 0.316 µM, first compound 3.16 µM
[24] = second compound 0.316 µM, first compound 10 µM
[25] = second compound 1 µM, first compound 0.0316 µM
[26] = second compound 1 µM, first compound 0.1 µM
[27] = second compound 1 µM, first compound 0.316 µM
[28] = second compound 1 µM, first compound 1 µM
[29] = second compound 1 µM, first compound 3.16 µM
[30] = second compound 1 µM, first compound 10 µM
[31] = second compound 3.16 µM, first compound 0.0316 µM
[32] = second compound 3.16 µM, first compound 0.1 µM
[33] = second compound 3.16 µM, first compound 0.316 µM
[34] = second compound 3.16 µM, first compound 1 µM
[35] = second compound 3.16 µM, first compound 3.16 µM
[36] = second compound 3.16 µM, first compound 10 µM
[37] = second compound 10 µM, first compound 0.0316 µM
[38] = second compound 10 µM, first compound 0.1 µM
[39] = second compound 10 µM, first compound 0.316 µM
[40] = second compound 10 µM, first compound 1 µM
[41] = second compound 10 µM, first compound 3.16 µM
[42] = second compound 10 µM, first compound 10 µM
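Note: spheroids exposed to drugs for seven days before readout.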
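Throughout, for viability, T/C: 100% = DMSO vehicle control wells.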

Work on `COc1ccc([C@@H](O)c2cc(-c3ncnc4cc(N5CCOCC5)ccc34)c(F)cc2Cl)nn1` + CNC(=O)c1ccc(Nc2nc(OC3CCCC3)c3c(-c4ccc5nc(C)oc5c4)c[nH]c3n2)c(OC)c1 yielded an IC50 [1] of 5.74 µM, an IC50 [2] of 1.46 µM and an IC50 [3] of less than 0.0316 µM. The IC50 [4] was less than 0.0316 µM, the IC50 [5] was less than 0.0316 µM and the IC50 [6] was less than 0.0316 µM. It also gave a viability, T/C [7] of 78.5%, a viability, T/C [8] of 118% and a viability, T/C [9] of 95.2%. For the same compound, the viability, T/C [10] was 82.7%, the viability, T/C [11] was 71.8% and the viability, T/C [12] was 31.1%. For the same compound, the viability, T/C [13] was 55.8%, the viability, T/C [14] was 55.2% and the viability, T/C [15] was 44.4%. For the same compound, the viability, T/C [16] was 47.9%, the viability, T/C [17] was 48.9% and the viability, T/C [18] was 22.9%. For the same compound, the viability, T/C [19] was 24%, the viability, T/C [20] was 23.9% and the viability, T/C [21] was 16.8%. It also gave a viability, T/C [22] of 19.2%, a viability, T/C [23] of 16.3% and a viability, T/C [24] of 12.3%. The viability, T/C [25] was 23.3%, the viability, T/C [26] was 24.6% and the viability, T/C [27] was 18.3%. For the same compound, the viability, T/C [28] was 17.4%, the viability, T/C [29] was 19.5% and the viability, T/C [30] was 12.1%. For the same compound, the viability, T/C [31] was 17.7%, the viability, T/C [32] was 17.7% and the viability, T/C [33] was 16.3%. The viability, T/C [34] was 22.1%, the viability, T/C [35] was 16.6% and the viability, T/C [36] was 12.4%. The viability, T/C [37] was 22.1%, the viability, T/C [38] was 20.9% and the viability, T/C [39] was 25.1%. It also gave a viability, T/C [40] of 18.4%, a viability, T/C [41] of 14.4% and a viability, T/C [42] of 8.91%.
In the case of `CCN1CCN(Cc2ccc(Nc3ncc(F)c(-c4cc(F)c5nc(C)n(C(C)C)c5c4)n3)nc2)CC1`, the viability, T/C (compound 0.00316 µM) is reported as 99.2% and 123%, the viability, T/C (compound 0.01 µM) is reported as 85.2% and 96.2% and the viability, T/C (compound 0.0316 µM) is reported as 79.4% and 92.5%. For the same compound, the viability, T/C (compound 0.1 µM) was 55.2% and 50%, the viability, T/C (compound 0.316 µM) was 50.4% and 57.6% and the viability, T/C (compound 1 µM) was 62.8% and 49.6%. The IC50 (curve of compound) was > 1 µM and 0.778 µM.
In the case of `CC1(C)CCC(CN2CCN(c3ccc(C(=O)NS(=O)(=O)c4ccc(NCC5CCOCC5)c([N+](=O)[O-])c4)c(Oc4cnc5[nH]ccc5c4)c3)CC2)=C(c2ccc(Cl)cc2)C1` + CNC(=O)c1ccc(Nc2nc(OC3CCCC3)c3c(-c4ccc5nc(C)oc5c4)c[nH]c3n2)c(OC)c1, the IC50 [1] is reported as 6.59 µM, the IC50 [2] is reported as 4.22 µM and the IC50 [3] is reported as less than 0.0316 µM. For the same compound, the IC50 [4] was less than 0.0316 µM, the IC50 [5] was less than 0.0316 µM and the IC50 [6] was less than 0.0316 µM. For the same compound, the viability, T/C [7] was 128%, the viability, T/C [8] was 118% and the viability, T/C [9] was 116%. It also gave a viability, T/C [10] of 125%, a viability, T/C [11] of 173% and a viability, T/C [12] of 3.47%. For the same compound, the viability, T/C [13] was 54.1%, the viability, T/C [14] was 68.9% and the viability, T/C [15] was 62.4%. The viability, T/C [16] was 75.5%, the viability, T/C [17] was 69.2% and the viability, T/C [18] was 2.06%. For the same compound, the viability, T/C [19] was 20.6%, the viability, T/C [20] was 23.1% and the viability, T/C [21] was 28.9%. It also gave a viability, T/C [22] of 20.9%, a viability, T/C [23] of 20.5% and a viability, T/C [24] of 3.1%. It also gave a viability, T/C [25] of 21.3%, a viability, T/C [26] of 18.3% and a viability, T/C [27] of 19.3%. The viability, T/C [28] was 27.2%, the viability, T/C [29] was 23.3% and the viability, T/C [30] was 3.87%. It also gave a viability, T/C [31] of 22.6%, a viability, T/C [32] of 24.9% and a viability, T/C [33] of 19.5%. It also gave a viability, T/C [34] of 22.9%, a viability, T/C [35] of 19.1% and a viability, T/C [36] of 6.53%. The viability, T/C [37] was 17.3%, the viability, T/C [38] was 19.6% and the viability, T/C [39] was 19.3%. For the same compound, the viability, T/C [40] was 19.4%, the viability, T/C [41] was 19.3% and the viability, T/C [42] was 4.56%.
